From patent US11413278B2, “Compounds and methods for promoting stress resistance” (priority 2015, dated 2022) come the findings set out here.

Where two headings read alike, the source gives them in different places.

Common to all, as to format: cell-based, human
One assay has as its system FOXO3. Description: qPCR analysis of FOXO3-regulated genes. Conditions: for fold induction at 10 µM: Homo sapiens; for K = Sestrin induction: score. A digest of the protocol: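 WI-38 cells treated with compound at 10 μM for 24 h, followed by Cells-to-Ct RT-qPCR of FOXO3 target genes normalised to B2M, PPIA and GAPDH. FOXO3 or NRF2 dependence tested by prior 10 nM siRNA knockdown (36 h transfection, compound added ~24 h after replating).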
Background: Real-time PCR tracks product formation cycle by cycle.

In the next assay the test system is NRF2. Description: qPCR analysis of NRF2-regulated genes. The settings on record: for fold induction at 10 µM: Homo sapiens. A digest of the protocol:
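WI-38 cells treated with compound at 10 μM for 24 hrs, then processed by Cells-to-Ct for RNA isolation, RT and qPCR of NRF2-regulated genes (HMOX1, NQO1, GCLC, GSTM1). Expression normalized to B2M, PPIA and GAPDH; siRNA knockdown of FOXO3 or NRF2 (10 nM) preceded treatment in some runs.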

The test system of another assay is mTOR. The assay is described as follows: mTOR inhibition (RPS6 phosphorylation status), In-Cell Western. A digest of the protocol: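 WI-38 cells exposed to compounds at 5, 10 and 20 μM for 24 hrs. Fixed cells co-stained overnight at 4° C with anti-RPS and anti-pRPS6 (Ser-235/236) antibodies, then DyLight 680/800 secondaries. Phospho-RPS6 relative to total RPS6 read by near-infrared In-Cell Western imaging.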

The mark [1] stands for this setting: WI-38 cells, 10 μM, 24 hrs, n=4, qPCR normalized by B2M, read-out: DDB1 Normalized fold change.
[2] abbreviates: WI-38 cells, 10 μM, 24 hrs, n=4, qPCR normalized by B2M, read-out: GADD45A Normalized fold change.
[3] abbreviates: WI-38 cells, 10 μM, 24 hrs, n=4, qPCR normalized by B2M, read-out: SESN1 Normalized fold change.
The mark [4] stands for this setting: qPCR, WI-38 cells, 10 μM, n=4, 24 hrs, normalized by B2M, read-out: CAT Normalized fold change.
Where [5] appears, read: qPCR, WI-38 cells, 10 μM, n=4, 24 hrs, normalized by B2M, read-out: SOD2 Normalized fold change.
[6] abbreviates: qPCR, WI-38 cells, 10 μM, n=4, 24 hrs, normalized by B2M, read-out: TXNIP Normalized fold change.
Setting [7] is: WI-38 cells, 10 μM, 24 hrs, n=4, qPCR normalized by B2M, read-out: GCLC Normalized fold change.
Where [8] appears, read: WI-38 cells, 10 μM, 24 hrs, n=4, qPCR normalized by B2M, read-out: GSTM1 Normalized fold change.
Where [9] appears, read: WI-38 cells, 10 μM, 24 hrs, n=4, qPCR normalized by B2M, read-out: HMOX1 Normalized fold change.
Setting [10] is: WI-38 cells, 10 μM, 24 hrs, n=4, qPCR normalized by B2M, read-out: NQO1 Normalized fold change.

For the compound `Cc1cc(N)n(-c2ccccc2C(=O)O)n1` [Gr-6A], the “E = Potential FOXO3 Activation” value with FOXO3 (2-point score) and in the assay on FOXO3 (summary score) was 0 in each case. The fold induction at 10 µM with FOXO3 (24 h, Assay 10(m), at 10 uM, qPCR, read-out: Induction of FOXO3-regulated genes: GADD45A normalized fold-change) is 0.79; in the assay with FOXO3 (10 μM, 24 hrs, WI-38 cells, qPCR, normalized to B2M, n = 4, read-out: GADD45A expression, normalized fold change (FOXO3-regulated gene)), 0.79; in the assay on FOXO3 (setting [1]), 1.05; with FOXO3 (setting [2]) it was 0.787; with FOXO3 (setting [3]), 1.18; with FOXO3 (fold change, qPCR, WI-38 cells, 10 μM, 24 hrs, read-out: Summary of effects on FOXO3-regulated genes: GADD45A), 0.79. Further, the fold induction at 10 µM came to 1.2 in the assay on FOXO3 (setting [4]); 0.868 in the assay with FOXO3 (setting [5]); 1.14 in the assay with FOXO3 (setting [6]); 1.03 in the assay on NRF2 (setting [7]); 1.09 in the assay with NRF2 (setting [8]); 1.1 in the assay with NRF2 (setting [9]). For the same compound, the fold induction at 10 µM with NRF2 (setting [10]) amounted to 1.02. Also, in the assay with FOXO3, the “K = Sestrin induction” value came to 0. Moreover, the “F = Potential NRF2 Activation” value with NRF2 (2-point score) and in the assay with NRF2 (summary score) was 0 in each case. In addition, the “G = mTOR down-regulation” value with mTOR (2-point score) and with mTOR (summary score) was 0 each time.

As to `CCc1ccc(Oc2nc3ccccn3c(=O)c2/C=C(\C#N)C(=O)NCc2ccco2)cc1` [Gr-5B], the “E = Potential FOXO3 Activation” value with FOXO3 (2-point score) and in the assay on FOXO3 (summary score) was 0 each time. In addition, the fold induction at 10 µM was 1.25 in the assay with FOXO3 (setting [1]); 0.808 in the assay with FOXO3 (setting [2]); 1.36 with FOXO3 (setting [3]); 1.42 with FOXO3 (setting [4]); 1.13 in the assay with FOXO3 (setting [5]); 1.2 with FOXO3 (setting [6]). The fold induction at 10 µM worked out at 1.27 in the assay on NRF2 (24 h, Assay 12(o), at 10 uM, qPCR, read-out: Induction of NRF2-regulated genes: GSTM1 normalized fold-change); 1.73 in the assay on NRF2 (24 h, Assay 12(o), at 10 uM, qPCR, read-out: Induction of NRF2-regulated genes: HMOX1 normalized fold-change); 1.94 with NRF2 (24 h, Assay 12(o), at 10 uM, qPCR, read-out: Induction of NRF2-regulated genes: NQO1 normalized fold-change); 1.73 in the assay with NRF2 (rounded fold change, WI-38 cells, 10 μM, 24 hrs (RP11 for Gr-1D, RP29 for Gr-4D), read-out: Summary of effects on NRF2-regulated genes: HMOX1); 1.27 in the assay on NRF2 (rounded fold change, WI-38 cells, 10 μM, 24 hrs (RP29 for Gr-4D), read-out: Summary of effects on NRF2-regulated genes: GSTM1); 1.94 in the assay on NRF2 (rounded fold change, WI-38 cells, 10 μM, 24 hrs (RP29 for Gr-4D), read-out: Summary of effects on NRF2-regulated genes: NQO1). In addition, the fold induction at 10 µM was > 1.5 in the assay on NRF2 (10 μM, 24 hrs, WI-38, read-out: Expression of at least two NRF2 target genes); 1.27 in the assay with NRF2 (10 μM, 24 hrs, WI-38 cells, qPCR, normalized to B2M, n = 4, read-out: GSTM1 expression, normalized fold change (NRF2-regulated gene)); 1.73 in the assay with NRF2 (10 μM, 24 hrs, WI-38 cells, qPCR, normalized to B2M, n = 4, read-out: HMOX1 expression, normalized fold change (NRF2-regulated gene)); 1.94 in the assay on NRF2 (10 μM, 24 hrs, WI-38 cells, qPCR, normalized to B2M, n = 4, read-out: NQO1 expression, normalized fold change (NRF2-regulated gene)); 1.15 with NRF2 (setting [7]); 1.27 in the assay with NRF2 (setting [8]). The fold induction at 10 µM is 1.73 with NRF2 (setting [9]) and 1.94 in the assay on NRF2 (setting [10]). Further, in the assay on FOXO3, the “K = Sestrin induction” value was determined as 0. The “F = Potential NRF2 Activation” value in the assay on NRF2 (2-point score) and in the assay on NRF2 (summary score) was 2 in each case. Moreover, the “Potential NRF2 Activation (>=2 target genes induced, by >=1.5-fold)” value with NRF2 (Assay 13(p)) is given as “YES”. In addition, the “G = mTOR down-regulation” value with mTOR (2-point score) and in the assay with mTOR (summary score) was 0 in each case.
